{
  "source": "patent US10512631B2",
  "about": "“Chalcone compounds” (Beth Israel Deaconess Medical Center, Inc., priority 2015, dated 2019)",
  "type_in_all_cases": "cell-based",
  "key": {"A549 [1]": {"tested_on": "A549", "test": "Cytoxicity / crystal violet staining, A549", "conditions": "average of triplicates, % of apoptotic cells vs DMSO controls, N.A. = not active at 10 μM", "protocol": "PC3 (provided by Dr. Steven Balk's laboratory in Department of Medicine at Beth Israel Deaconess Medical Center), PANC02 and CRL2119 (provided by Dr. Pankaja Seth's laboratory in Department of Medicine at Beth Israel Deaconess Medical Center), A549 (ATCC) cell lines were cultured according to manufacturer's protocols. Briefly, PC3 were cultured in RPMI medium supplemented with 10% FBS (Atlanta). PANC-2, A549 and CRL2119 were cultured in DMEM High medium supplemented with 10% FBS (Atlanta). Human bronchial epithelial cells (BEC) were cultured in Airway Epithelial Cell Basal Medium with the Bronchial Epithelial cell growth kit (ATCC) according to manufacturer's protocol and used at passages 3-5.\n(§1) Cells were seeded at 5×10^3 concentration in 96 well plates and treated with test compounds or DMSO (0.001-10 μM) for 72 hours. Culture medium was removed and cells were stained with crystal violet solution (Sigma-Aldrich) for 15 minutes while shaking at room temperature. Crystal violet was then removed and cells were repeatedly washed in water. Attached cells stained with crystal violet were dried and then resuspended in 10% acetic acid. Absorbance was measured at 562 nm. The intensity of staining corresponded directly to the number of live cells."}, "DNA synthesis": {"tested_on": "DNA synthesis", "test": "BrDU proliferation", "conditions": "data not shown"}, "PC3 cells [2]": {"tested_on": "PC3 cells", "test": "RT2 profiler PCR array Human Cancer Pathway", "conditions": "after treatment vs DMSO", "protocol": "RT^2 profiler PCR array Human Cancer Pathway was purchased from SA Biosciences. RNA from PC3 cells treated with DMSO or Compound 6 were isolated and prepared for RT-PCR following manufacturer' protocol. Analysis was performed online using the software provided by SA Biosciences."}, "[3]": {"tested_on": "PC3 cells transfected with siRNA against STMN1", "test": "Crystal violet staining of PC3 cells transfected with siRNA against STMN1", "conditions": "siRNA STMN1 vs control siRNA; 1 μM Compound 6, 1 μM Compound 7, 0.1 μM Compound 8, 72 hours", "protocol": "as §1\n(§2) siRNA against STMN1 and scramble siRNA were obtained from Darmacon (ONTARGET plus siRNA). PC3 cells were transiently transfected with siRNA against STMN1 or scramble siRNA using Lipofectamine 2000 (Invitrogen) as previously described in Wegiel et al., J. Biol. Chem. 2009, 7; 284(32):21369-78. Twenty four hours post-transfection, cells were split to 96 well plates and treated with test compounds for 72 hours. STMN1 levels were measured by immunoblotting to confirm successful knockdown."}, "PC3 cells [4]": {"tested_on": "PC3 cells", "test": "Immunofluorescence of P-Histone H3 and α-tubulin in PC3 cells (siRNA STMN1 or control)", "protocol": "Immunofluorescence and immunostaining on cell lines and tumor samples were performed as described in Wegiel et al, Cancer research 2013, 73(23), 7009-21. Anti-mouse STMN1, anti-P (Ser10)-Histone H3, and α-tubulin antibody were obtained from Cell Signaling. β-actin antibody was obtained from Sigma-Aldrich. Cells were treated with Compound 6 (1 μM) or DMSO for 48 hours. After immunofluorescence staining, the number of P-Histone H3 was quantified per field of view at 40× magnification using Zeiss Axiovert Microscope.\nas §2"}, "A549 cells": {"tested_on": "A549 cells", "test": "Invasion chambers (Transwell, Matrigel)", "conditions": "serum chemoattractants, compared to untreated cells", "protocol": "The invasion of A549 cells was measured using Transwell chambers (Chemicon, Millipore, Calif.) according to the manufacturer's protocol. Briefly, A549 cells were treated with test compounds at 1 μM in 500 μl of DMEM medium without FBS for 24 hours. Medium in the upper chamber was serum-free while medium in the lower chamber contained 10% FBS as a source of chemoattractants. Cells that passed through the Matrigel-coated membrane were stained and photographed after 24 hours of incubation. Absorbance was measured at 562 nm by ELISA reader after dissolving of stained cells in 10% acetic acid."}, "A549 [5]": {"tested_on": "A549", "test": "Cytoxicity / crystal violet staining, A549", "conditions": "Homo sapiens, 0.01-5 μM for 72 hours, n=4"}},
  "data": [
    {"smiles": "Cn1ccc2cc(/C=C3\\CCc4ccc(F)cc4C3=O)ccc21", "note": "[Compound 6, (2E)-7-fluoro-2-[(1-methyl-1H-indol-5-yl)methylidene]-1,2,3,4-tetrahydronaphthalen-1-one]", "values": [
      {"measurement": "Cytoxicity (% cell killing at 10 μM) A549", "setting": "A549 [1]", "value": 47, "unit": "%"},
      {"measurement": "DNA synthesis (BrDU proliferation)", "setting": "DNA synthesis", "value": "did not inhibit DNA synthesis"},
      {"measurement": "adrenomedullin mRNA elevation", "setting": "PC3 cells [2]", "value": "more than 4 fold"},
      {"measurement": "stathmin (STMN1) mRNA elevation", "setting": "PC3 cells [2]", "value": "more than 4 fold"},
      {"measurement": "cell death in response to compound in the absence of STMN1", "setting": "[3]", "value": "attenuated in the absence of STMN1"},
      {"measurement": "number of cells undergoing mitosis (P-Histone H3) and normal mitotic spindles (α-tubulin)", "setting": "PC3 cells [4]; 1 μM", "value": "blocked number of cells undergoing mitosis"},
      {"measurement": "microtubule destabilization, aberrant mitotic spindle and P-Histone H3 positive cells in the absence of STMN1", "setting": "PC3 cells [4]; siRNA against STMN1, 1 μM", "value": "in part reversed"},
      {"measurement": "invasion / migration through matrigel coated chambers", "setting": "A549 cells", "value": "strongly inhibited invasion"},
      {"measurement": "IC50", "setting": "A549 [5]", "value": 0.208, "unit": "µM"}
    ]}
  ]
}
